The results in this text go back to ChEMBL document CHEMBL1147808, “Protein tyrosine phosphatase 1B inhibitory activity of triterpenes isolated from Astilbe koreana” (Bioorg Med Chem Lett, 2006).

Bounds are passed on as bounds.

For this test, the target named is T1, Tyrosine-protein phosphatase non-receptor type 1 (Homo sapiens, UniProt P18031).
T1 sequence (P18031 whole entry): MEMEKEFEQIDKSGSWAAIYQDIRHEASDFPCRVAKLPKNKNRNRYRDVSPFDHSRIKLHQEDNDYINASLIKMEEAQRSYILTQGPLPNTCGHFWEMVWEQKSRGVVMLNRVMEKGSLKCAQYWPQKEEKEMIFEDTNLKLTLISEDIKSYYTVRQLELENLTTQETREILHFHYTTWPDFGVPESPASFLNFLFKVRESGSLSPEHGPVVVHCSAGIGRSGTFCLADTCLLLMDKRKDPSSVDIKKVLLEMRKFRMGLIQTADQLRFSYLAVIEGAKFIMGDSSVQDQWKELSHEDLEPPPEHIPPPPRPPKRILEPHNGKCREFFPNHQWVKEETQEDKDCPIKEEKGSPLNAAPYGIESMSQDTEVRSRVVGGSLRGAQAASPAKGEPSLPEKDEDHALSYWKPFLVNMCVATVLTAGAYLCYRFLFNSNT
Kind of test: Inhibition of human recombinant PTP1B.
As usually defined, the IC50 is the concentration that gives 50% inhibition. `CC1(C)CC[C@]2(C)CC[C@]3(C(=O)O)C(=CC[C@@H]4[C@@]5(C)CCC(=O)C(C)(C)[C@@H]5CC[C@]43C)[C@@H]2C1`: the IC50 amounted to 6.8 µM. Regarding `COC(=O)[C@@]12CC[C@@]3(C)CCC(C)(C)C[C@H]3C1=CC[C@@H]1[C@@]3(C)CC[C@H](O)C(C)(C)C3CC[C@]12C` (some centres undefined), the IC50 was 16 µM. For the compound `CC1(C)CC[C@]2(C)CC[C@]3(C(=O)O)C(=CC[C@@H]4[C@@]5(C)CC[C@@H](O)[C@](C)(CO)C5CC[C@]43C)[C@@H]2C1` (some centres undefined), the IC50 worked out at 11.7 µM. In the case of `CC(=O)O[C@H]1CC[C@@]2(C)C(CC[C@]3(C)[C@@H]2CC=C2[C@@H]4CC(C)(C)CC[C@]4(C)CC[C@]23C(=O)O)C1(C)C` (some centres undefined) it was 8.5 µM. Regarding `CC1(C)CC[C@]2(C)CC[C@]3(C(=O)O)C(=CC[C@@H]4[C@@]5(C)CC[C@H](O)C(C)(C)C5CC[C@]43C)[C@@H]2C1` (some centres undefined), the IC50 came out at 5.2 µM. For the compound `CC1(C)CC[C@]2(C)CC[C@]3(C(=O)O)C(=CC[C@@H]4[C@@]5(C)CC[C@H](O)C(C)(C)C5[C@H](O)C[C@]43C)[C@@H]2C1` (some centres undefined), the IC50 was found to be 12.8 µM. In the case of `C[C@H]1[C@H](C)CC[C@]2(C)CC[C@]3(C(=O)O)C(=CC[C@@H]4[C@@]5(C)CC[C@H](O)C(C)(C)C5CC[C@]43C)[C@H]12` (some centres undefined), the IC50 was 4.9 µM. Regarding `COC(=O)[C@@]12CCC3C(=CC[C@H]4[C@@]3(C)CCC3C(C)(C)[C@@H](O)CC[C@@]34C)[C@@H]1CC(C)(C)CC2` (some centres undefined), the IC50 was 14.2 µM. To `CC1(C)[C@@H](O[C@H]2O[C@H](C(=O)O)[C@@H](O)[C@H](O)[C@H]2O[C@@H]2O[C@H](C(=O)O)[C@@H](O)[C@H](O)[C@H]2O)CC[C@]2(C)[C@H]3C(=O)C=C4[C@@H]5C[C@@](C)(C(=O)O)CC[C@]5(C)CC[C@@]4(C)[C@]3(C)CC[C@@H]12` [GLYCYRRHIZIN] belongs above 100 µM.
